The record followed here is patent US4511504A, “Carboxyalkyl peptide derivatives” (G.D. Searle & Co., priority 1983, dated 1985).

This assay deals with T1, Human Rheumatoid Synovial Collagenase (Homo sapiens, UniProt P03956).
T1 construct: Human Rheumatoid Synovial Collagenase; from tissue; host or cells: human rheumatoid synovium (from the name only; the preparation is not described)
T1 sequence (P03956 100-469): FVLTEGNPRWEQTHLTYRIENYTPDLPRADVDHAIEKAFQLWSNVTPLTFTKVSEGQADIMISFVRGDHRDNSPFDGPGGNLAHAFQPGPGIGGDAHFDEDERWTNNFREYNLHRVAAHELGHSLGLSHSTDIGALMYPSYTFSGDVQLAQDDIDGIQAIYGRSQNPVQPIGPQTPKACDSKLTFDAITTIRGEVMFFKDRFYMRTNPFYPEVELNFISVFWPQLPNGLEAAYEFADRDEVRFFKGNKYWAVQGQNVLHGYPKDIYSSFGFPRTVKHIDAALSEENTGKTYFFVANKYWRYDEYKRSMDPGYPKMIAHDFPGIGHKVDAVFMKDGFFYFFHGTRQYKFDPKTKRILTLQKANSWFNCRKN
Briefly: Collagenase inhibition, procedure of Cawston and Barrett (acetyl 14C collagen hydrolysis). The conditions noted are these: inhibitor concentration effecting 50% inhibition; 37° C., 16 hours, native acetyl 14C collagen, Tris HCl-CaCl2 pH 7.6. Format: biochemical. On the procedure: This was determined following the procedure of Cawston and Barrett, Anal. Biochem., 99, 340-345 (1979) whereby the 1 mM of the inhibitor being tested or dilutions thereof are incubated at 37° C. for 16 hours with native collagen and collagenase (buffered with Tris HCl--CaCl2; pH 7.6). The collagen is acetyl ^14 C collagen. The samples are centrifuged to sediment undigested collagen and an aliquot of the radiactive supernatant removed for assay on a scintillation counter as a measure of hydrolysis. The collagenase activity in the presence of 1 mM inhibitor, or a dilution thereof is compared to activity in a control devoid of inhibitor and the results reported as that inhibitor concentration effecting 50% inhibition of the collagenase.

By IC50 is commonly meant the midpoint of a concentration-inhibition curve. Lower therefore signals greater potency. `CCCCNC(=O)[C@H](C)NC(=O)[C@H](CC(C)(C)C)N[C@H](C)C(=O)O` [Example 23, N-[2-(S)-N-(1-(R)-Carboxyethyl)amino-4,4-dimethylpentanoyl]-L-alanine N-Butylamide] gave an IC50 of 25 µM.
